Experiment [1] addresses T1, Acetylcholinesterase (Homo sapiens, UniProt P22303). In words: Binding affinity to AChE (unknown origin) assessed as inhibition constant.
The target of experiment [2] is ATP-dependent translocase ABCB1 (Homo sapiens, UniProt P08183). The experiment is described as follows: Inhibition of p-glycoprotein (unknown origin).
For experiment [3], the system named is MCF7. The experiment is described as follows: Antiproliferative activity against human MCF7 cells assessed as reduction in cell viability incubated for 48 hrs by MTT assay. It is filed as functional, cell-based. To be noted: MCF7, 48 h. A general note: Formazan colour is commonly taken as a measure of viable cells.
In experiment [4] the test system is HepG2. The experiment is described as follows: Antiproliferative activity against human HepG2 cells assessed as reduction in cell viability incubated for 48 hrs by MTT assay. It is filed as functional, cell-based. To be noted: HepG2, 48 h.
In experiment [5] the target is T1, Acetylcholinesterase. The experiment is described as follows: Inhibition of human AChE using acetylthiocholine iodide as substrate after 15 mins by Ellman's method. For orientation: DTNB colorimetry detects thiols as they appear.
The target of experiment [6] is T2, Amine oxidase [flavin-containing] B (Homo sapiens, UniProt P27338).
T2 sequence (P27338 whole entry): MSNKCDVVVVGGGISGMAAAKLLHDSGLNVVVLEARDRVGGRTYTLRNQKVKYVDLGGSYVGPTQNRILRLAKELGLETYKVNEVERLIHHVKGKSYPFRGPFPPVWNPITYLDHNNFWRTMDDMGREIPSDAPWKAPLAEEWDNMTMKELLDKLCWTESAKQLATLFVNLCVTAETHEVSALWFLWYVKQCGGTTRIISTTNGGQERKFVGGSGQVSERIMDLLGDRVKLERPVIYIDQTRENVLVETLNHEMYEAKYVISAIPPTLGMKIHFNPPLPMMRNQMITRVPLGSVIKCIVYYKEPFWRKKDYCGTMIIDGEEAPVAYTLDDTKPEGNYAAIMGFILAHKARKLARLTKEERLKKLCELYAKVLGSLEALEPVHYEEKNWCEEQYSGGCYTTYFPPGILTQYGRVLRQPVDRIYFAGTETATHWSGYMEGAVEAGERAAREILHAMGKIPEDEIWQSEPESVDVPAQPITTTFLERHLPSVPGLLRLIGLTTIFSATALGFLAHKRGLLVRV
In words: Inhibition of MAO-B (unknown origin).

T1 sequence (P22303 whole entry): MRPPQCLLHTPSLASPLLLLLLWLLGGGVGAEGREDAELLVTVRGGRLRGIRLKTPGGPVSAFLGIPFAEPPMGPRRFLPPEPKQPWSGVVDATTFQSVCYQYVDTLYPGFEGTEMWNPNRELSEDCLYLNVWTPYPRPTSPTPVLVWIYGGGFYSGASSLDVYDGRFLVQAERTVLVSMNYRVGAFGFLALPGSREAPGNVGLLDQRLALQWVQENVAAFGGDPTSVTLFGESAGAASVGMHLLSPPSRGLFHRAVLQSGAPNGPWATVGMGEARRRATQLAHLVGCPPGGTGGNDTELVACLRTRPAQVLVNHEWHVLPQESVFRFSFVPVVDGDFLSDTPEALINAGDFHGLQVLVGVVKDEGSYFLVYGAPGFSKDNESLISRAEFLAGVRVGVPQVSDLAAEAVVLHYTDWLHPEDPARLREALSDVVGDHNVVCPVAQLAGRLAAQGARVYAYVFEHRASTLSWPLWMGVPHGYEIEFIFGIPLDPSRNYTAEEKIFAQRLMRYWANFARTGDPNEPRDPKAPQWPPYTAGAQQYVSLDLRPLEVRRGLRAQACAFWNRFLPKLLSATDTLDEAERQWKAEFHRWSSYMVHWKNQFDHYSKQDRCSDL
Chain of ATP-dependent translocase ABCB1 (P08183 whole entry): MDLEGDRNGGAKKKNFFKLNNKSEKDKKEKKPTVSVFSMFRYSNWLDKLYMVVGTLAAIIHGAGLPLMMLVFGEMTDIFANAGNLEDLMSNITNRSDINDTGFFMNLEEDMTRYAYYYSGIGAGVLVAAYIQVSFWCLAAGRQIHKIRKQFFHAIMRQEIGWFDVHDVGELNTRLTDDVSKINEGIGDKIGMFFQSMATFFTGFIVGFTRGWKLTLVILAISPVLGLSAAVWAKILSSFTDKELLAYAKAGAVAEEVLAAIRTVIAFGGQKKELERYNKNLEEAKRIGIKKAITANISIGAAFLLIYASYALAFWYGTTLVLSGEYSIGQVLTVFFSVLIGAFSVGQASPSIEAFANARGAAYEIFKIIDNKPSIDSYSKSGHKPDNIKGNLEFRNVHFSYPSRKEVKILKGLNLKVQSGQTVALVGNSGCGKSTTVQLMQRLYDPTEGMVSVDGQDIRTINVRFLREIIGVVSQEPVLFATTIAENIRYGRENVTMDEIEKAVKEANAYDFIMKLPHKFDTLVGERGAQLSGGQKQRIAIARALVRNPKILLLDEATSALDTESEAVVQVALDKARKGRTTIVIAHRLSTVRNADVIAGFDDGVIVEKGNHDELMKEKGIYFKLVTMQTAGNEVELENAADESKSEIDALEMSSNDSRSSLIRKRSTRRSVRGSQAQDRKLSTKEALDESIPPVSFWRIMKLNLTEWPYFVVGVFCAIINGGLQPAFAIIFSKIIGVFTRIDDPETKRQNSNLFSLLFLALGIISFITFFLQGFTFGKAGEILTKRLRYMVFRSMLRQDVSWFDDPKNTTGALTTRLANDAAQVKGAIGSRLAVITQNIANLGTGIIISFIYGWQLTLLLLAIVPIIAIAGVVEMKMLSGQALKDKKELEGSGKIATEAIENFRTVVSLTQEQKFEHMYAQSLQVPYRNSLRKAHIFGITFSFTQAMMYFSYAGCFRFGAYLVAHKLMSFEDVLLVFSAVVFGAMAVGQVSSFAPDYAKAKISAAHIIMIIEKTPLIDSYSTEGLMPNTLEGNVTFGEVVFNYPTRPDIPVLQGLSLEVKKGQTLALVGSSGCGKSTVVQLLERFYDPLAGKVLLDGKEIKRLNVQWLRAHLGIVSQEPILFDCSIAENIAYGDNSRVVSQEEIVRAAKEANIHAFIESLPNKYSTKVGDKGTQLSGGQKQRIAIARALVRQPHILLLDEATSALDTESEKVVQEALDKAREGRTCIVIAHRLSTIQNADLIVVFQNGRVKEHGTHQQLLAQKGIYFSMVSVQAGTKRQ

As a reminder, the Ki is a measure of affinity in units of concentration, obtained from inhibition or displacement. `COCC1=C=C(c2ccc(OC)cc2)c2cc(OC)c(OC)cc2CCN(C)/C=C\1C(=O)OC`: the Ki in experiment [1] was found to be 4.9 µM.

As usually defined, the IC50 is the midpoint of a concentration-inhibition curve. Regarding `COC(=O)/C1=C/N(C)CCc2cc(OC)c(OC)cc2C(c2ccc(OC)cc2)=C=C1c1ccccc1`, the IC50 was 0.0042 µM in experiment [2], over 100 µM in experiment [3] and over 100 µM in experiment [4].

On to `COC(=O)/C1=C/N(C)CCc2cc(OC)c(OC)cc2C(C)=C=C1c1ccccc1`, for which the results for the IC50 in experiment [5] and in experiment [6] were 14 µM and 7.1 µM, respectively.

Values taken from ChEMBL document CHEMBL6083258, “Advances in synthesis of novel annulated azecines and their unique pharmacological properties” (Eur J Med Chem, 2024).
